Assay results taken from ChEMBL document CHEMBL5096203, “Discovery of 6-[(3S,4S)-4-Amino-3-methyl-2-oxa-8-azaspiro[4.5]decan-8-yl]-3-(2,3-dichlorophenyl)-2-methyl-3,4-dihydropyrimidin-4-one (IACS-15414), a Potent and Orally Bioavailable SHP2 Inhibitor” (J Med Chem, 2021).

Columns and labels:
[1] = Volume of distribution at steady state in Cynomolgus monkey measured at 0.083 to 24 hrs by LC-MS/MS analysis; type: ADME, Macaca fascicularis; settings: in vivo, time 0.083-24 hrs, read-out: Vdss
[2] = Half life in iv dosed Cynomolgus monkey measured at 0.083 to 24 hrs by LC-MS/MS analysis; type: ADME, organism-based, Macaca fascicularis; settings: in vivo, time 0.083-24 hrs
[3] = Metabolic stability in rat microsome assessed as intrinsic clearance incubated for 45 mins in presence of NADPH regenerating system by LC-MS/MS analysis; type: ADME; settings: microsomes
[4] = Half life in iv dosed Beagle dog measured at 0.083 to 24 hrs by LC-MS/MS analysis; type: ADME, organism-based, Canis lupus familiaris; settings: in vivo, time 0.083-24 hrs
[5] = Oral bioavailability in Cynomolgus monkey measured at 0.083 to 24 hrs by LC-MS/MS analysis; type: ADME, organism-based, Macaca fascicularis; settings: in vivo, time 0.083-24 hrs
[6] = Half life in iv dosed Sprague-Dawley rat measured at 0.083 to 24 hrs by LC-MS/MS analysis; type: ADME, organism-based; settings: in vivo, time 0.083-24 hrs
[7] = Oral bioavailability in Beagle dog measured at 0.083 to 24 hrs by LC-MS/MS analysis; type: ADME, organism-based, Canis lupus familiaris; settings: in vivo, time 0.083-24 hrs
[8] = Metabolic stability in human microsome assessed as intrinsic clearance incubated for 45 mins in presence of NADPH regenerating system by LC-MS/MS analysis; type: ADME; settings: microsomes
[9] = Clearance in iv dosed CD-1 mouse measured at 0.083 to 24 hrs by LC-MS/MS analysis; type: ADME, organism-based; settings: in vivo, time 0.083-24 hrs
[10] = Clearance in iv dosed Cynomolgus monkey measured at 0.083 to 24 hrs by LC-MS/MS analysis; type: ADME, organism-based, Macaca fascicularis; settings: in vivo, time 0.083-24 hrs
[11] = Clearance in iv dosed Sprague-Dawley rat measured at 0.083 to 24 hrs by LC-MS/MS analysis; type: ADME, organism-based; settings: in vivo, time 0.083-24 hrs
[12] = Metabolic stability in monkey microsome assessed as intrinsic clearance incubated for 45 mins in presence of NADPH regenerating system by LC-MS/MS analysis; type: ADME, Macaca mulatta; settings: rhesus monkey, microsomes, read-out: CLH
[13] = Half life in iv dosed CD-1 mouse measured at 0.083 to 24 hrs by LC-MS/MS analysis; type: ADME, organism-based; settings: in vivo, time 0.083-24 hrs
[14] = Volume of distribution at steady state in CD-1 mouse measured at 0.083 to 24 hrs by LC-MS/MS analysis; type: ADME; settings: in vivo, time 0.083-24 hrs, read-out: Vdss
[15] = Oral bioavailability in CD-1 mouse measured at 0.083 to 24 hrs by LC-MS/MS analysis; type: ADME, organism-based; settings: in vivo, time 0.083-24 hrs
[16] = Permeability of compound across basolateral to apical side in dog MDCK-MDR1 cells; type: ADME, cell-based, Canis lupus familiaris
[17] = Volume of distribution at steady state in Sprague-Dawley rat measured at 0.083 to 24 hrs by LC-MS/MS analysis; type: ADME; settings: in vivo, time 0.083-24 hrs, read-out: Vdss
[18] = Metabolic stability in Beagle dog microsome assessed as intrinsic clearance incubated for 45 mins in presence of NADPH regenerating system by LC-MS/MS analysis; type: ADME, Canis lupus familiaris; settings: microsomes, read-out: CLH
[19] = Volume of distribution at steady state in Beagle dog measured at 0.083 to 24 hrs by LC-MS/MS analysis; type: ADME, Canis lupus familiaris; settings: in vivo, time 0.083-24 hrs, read-out: Vdss
[20] = Metabolic stability in mouse microsome assessed as intrinsic clearance incubated for 45 mins in presence of NADPH regenerating system by LC-MS/MS analysis; type: ADME; settings: microsomes, read-out: CLH
[21] = Oral bioavailability in […] Sprague-Dawley rat measured at 0.083 to 24 hrs by LC-MS/MS analysis; type: ADME, organism-based; settings: in vivo, time 0.083-24 hrs
[22] = Clearance in iv dosed Beagle dog measured at 0.083 to 24 hrs by LC-MS/MS analysis; type: ADME, organism-based, Canis lupus familiaris; settings: in vivo, time 0.083-24 hrs
[23] = Permeability of compound across apical to basolateral side in dog MDCK-MDR1 cells; type: ADME, cell-based, Canis lupus familiaris
[24] = Permeability of compound across apical to basolateral side in dog wild type MDCK-MDR1 cells; type: ADME, cell-based, Canis lupus familiaris; settings: read-out: permeability
[25] = Permeability of compound across basolateral to apical side in dog wild type MDCK cells; type: ADME, cell-based, Canis lupus familiaris; settings: read-out: permeability
[26] = Permeability of compound across apical to basolateral side in dog wild type MDCK cells; type: ADME, cell-based, Canis lupus familiaris; settings: read-out: permeability
[27] = Permeability of compound across basolateral to apical side in dog wild type MDCK-MDR1 cells; type: ADME, cell-based, Canis lupus familiaris; settings: read-out: permeability
[28] = AUC (0 to 24 hrs) in Sprague-Dawley rat 1 mg/kg, iv measured at 0.083 to 24 hrs by LC-MS/MS analysis; type: ADME, organism-based; parameters: dose 1 mg/kg, time 0.083-24 hrs, route iv; settings: in vivo
[29] = Clearance in Sprague-Dawley rat 1 mg/kg, iv measured at 0.083 to 24 hrs by LC-MS/MS analysis; type: ADME, organism-based; settings: in vivo, time 0.083-24 hrs
[30] = Oral bioavailability in Sprague-Dawley rat 3 mg/kg, iv measured at 0.083 to 24 hrs by LC-MS/MS analysis; type: ADME, organism-based; settings: in vivo, time 0.083-24 hrs
[31] = Half life in Sprague-Dawley rat 1 mg/kg, iv measured at 0.083 to 24 hrs by LC-MS/MS analysis; type: ADME, organism-based; settings: in vivo, time 0.083-24 hrs
[32] = organism: Homo sapiens; experiment: Binding affinity to human SHP2 E76K mutant assessed as change in enthalpy by isothermal titration calorimetry assay
[33] = Dissociation constant, pKa of the compound; type: physicochemical
[34] = Volume of distribution at steady state in Sprague-Dawley rat 3 mg/kg, po or 1 mg/kg, iv measured at 0.083 to 24 hrs by LC-MS/MS analysis; type: ADME, organism-based; settings: in vivo, time 0.083-24 hrs
[35] = organism: Homo sapiens; experiment: Binding affinity to human SHP2 E76K mutant assessed as change in entropy by isothermal titration calorimetry assay
[36] = Clearance in Sprague-Dawley rat 0.3 mg/kg, iv measured at 0.083 to 24 hrs by LC-MS/MS analysis; type: ADME, organism-based; settings: in vivo, time 0.083-24 hrs
[37] = Volume of distribution at steady state in Sprague-Dawley rat 3 mg/kg, po or 3 mg/kg, iv measured at 0.083 to 24 hrs by LC-MS/MS analysis; type: ADME, organism-based; settings: in vivo, time 0.083-24 hrs
[38] = Half life in Sprague-Dawley rat 0.3 mg/kg, iv measured at 0.083 to 24 hrs by LC-MS/MS analysis; type: ADME, organism-based; settings: in vivo, time 0.083-24 hrs
[39] = AUC (0 to 24 hrs) in Sprague-Dawley rat 0.3 mg/kg, iv measured at 0.083 to 24 hrs by LC-MS/MS analysis; type: ADME, organism-based; parameters: time lower 0.083 hrs, dose 0.3 mg/kg, time upper 24 hrs, route iv; settings: in vivo
[40] = Oral bioavailability in Sprague-Dawley rat 3 mg/kg measured at 0.083 to 24 hrs by LC-MS/MS analysis; type: ADME, organism-based; settings: in vivo, time 0.083-24 hrs
[41] = Oral bioavailability in Sprague-Dawley rat 0.3 mg/kg measured at 0.083 to 24 hrs by LC-MS/MS analysis; type: ADME, organism-based; settings: in vivo, time 0.083-24 hrs

Cc1nc(N2CCC3(CC2)CO[C@@H](C)[C@H]3N)cc(=O)n1-c1cccc(Cl)c1Cl (stereo in doubt)
Vd [1]: 3.4 L/kg | half-life [2]: 9.4 h | CLint scaled [3]: 0.8 mL/min/kg | half-life [4]: 8.6 h | bioavailability [5]: 89% | half-life [6]: 5.9 h | bioavailability [7]: 106% | CLint scaled ([8]; read-out: CL): 0.7 mL/min/kg | clearance [9]: 9.2 mL/min/kg | clearance [10]: 4.2 mL/min/kg | clearance [11]: 5.8 mL/min/kg | CLint scaled [12]: 21 mL/min/kg | half-life [13]: 3.5 h | Vd [14]: 2.6 L/kg | bioavailability [15]: 99% | Papp B→A [16]: 32 ×10⁻⁶ cm/s | Vd [17]: 2.5 L/kg | CLint scaled [18]: 17 mL/min/kg | Vd [19]: 2.9 L/kg | CLint scaled [20]: 28 mL/min/kg | bioavailability [21]: 80% | clearance [22]: 4.2 mL/min/kg | Papp A→B [23]: 12 ×10⁻⁶ cm/s

CC1(N)CCN(c2cnc3c(-c4cccc(Cl)c4Cl)n[nH]c3n2)CC1
Papp A→B [24]: 6 ×10⁻⁶ cm/s | Papp B→A [25]: 6.8 ×10⁻⁶ cm/s | Papp A→B [26]: 6 ×10⁻⁶ cm/s | Papp B→A [27]: 8.5 ×10⁻⁶ cm/s | AUC(0-t) [28]: 2 µM·h | CL [29]: 70% | bioavailability [30]: 70% | half-life [31]: 13 h | deltaH [32]: -3.67 kcal/mol | pKa [33]: 10.4 | Vdss [34]: 21 L/kg | -TdeltaS [35]: -5.44 kcal/mol

C[C@@H]1OCC2(CCN(c3cnc4c(-c5cccc(Cl)c5Cl)n[nH]c4n3)CC2)[C@@H]1N
Papp A→B [24]: 6.4 ×10⁻⁶ cm/s | Papp B→A [25]: 10 ×10⁻⁶ cm/s | Papp A→B [26]: 9 ×10⁻⁶ cm/s | Papp B→A [27]: 10.2 ×10⁻⁶ cm/s

CNc1nccc(-c2n[nH]c3nc(N4CCC(C)(N)CC4)cnc23)c1Cl
clearance [36]: 37 mL/min/kg | Vdss [37]: 12.9 L/kg | Papp A→B [24]: 2.1 ×10⁻⁶ cm/s | half-life [38]: 4.8 h | Papp B→A [25]: 8 ×10⁻⁶ cm/s | Papp A→B [26]: 4.2 ×10⁻⁶ cm/s | Papp B→A [27]: 28 ×10⁻⁶ cm/s | AUC(0-t) [39]: 0.314 µM·h | pKa [33]: 10.4 | bioavailability [40]: 38%

CCNc1nccc(-c2n[nH]c3nc(N4CCC5(CC4)CO[C@@H](C)[C@H]5N)cnc23)c1Cl
Papp A→B [24]: 8.6 ×10⁻⁶ cm/s | Papp B→A [25]: 25 ×10⁻⁶ cm/s | Papp A→B [26]: 12.4 ×10⁻⁶ cm/s | Papp B→A [27]: 40.7 ×10⁻⁶ cm/s | pKa [33]: 9.3

N[C@@H]1CCCC12CCN(c1nc3[nH]nc(-c4cccc(Cl)c4Cl)c3c(=O)[nH]1)CC2
clearance [36]: 12 mL/min/kg | Vdss [37]: 2.2 L/kg | bioavailability [41]: 3% | CLint scaled [3]: 26 mL/min/kg | Papp A→B [24]: 0.3 ×10⁻⁶ cm/s | half-life [38]: 2.7 h | Papp B→A [25]: 3.64 ×10⁻⁶ cm/s | Papp A→B [26]: 0.27 ×10⁻⁶ cm/s | Papp B→A [27]: 9.5 ×10⁻⁶ cm/s | CLint scaled ([8]; read-out: CL): 2 mL/min/kg

Cc1nc(N2CCC3(CC2)CO[C@@H](C)[C@H]3N)c(Cl)c(=O)n1-c1cccc(Cl)c1Cl
Vd [1]: 4.5 L/kg | half-life [2]: 7.3 h | CLint scaled [3]: 72 mL/min/kg | half-life [4]: 5.5 h | bioavailability [5]: 53% | half-life [6]: 1.8 h | bioavailability [7]: 88% | CLint scaled ([8]; read-out: CLH): 10 mL/min/kg | clearance [9]: 11.6 mL/min/kg | clearance [10]: 8.3 mL/min/kg | clearance [11]: 41.3 mL/min/kg | CLint scaled [12]: 74 mL/min/kg | half-life [13]: 6 h | Vd [14]: 4.6 L/kg | bioavailability [15]: 119% | Papp B→A [16]: 19 ×10⁻⁶ cm/s | Vd [17]: 3.7 L/kg | CLint scaled [18]: 529 mL/min/kg | Vd [19]: 3.5 L/kg | CLint scaled [20]: 37 mL/min/kg | bioavailability [21]: 38% | clearance [22]: 9.2 mL/min/kg | Papp A→B [23]: 18 ×10⁻⁶ cm/s
